Reference: patent US20040171566A1, “Antisense modulation of p38 mitogen activated protein kinase expression” (priority 1999, published 2004)

Experiments:
p38α = p38α knock-down in mouse T cell line EL4, Western blotting; format: cell-based
rat p38α mRNA = assay: Rat p38α mRNA levels in NR-8383 cells, quantitative real-time PCR; format: cell-based; conditions: 300 nM oligonucleotide with FuGENE 6, 24 hours, mRNA by quantitative real-time PCR, average of two experiments
[1] = system: ovalbumin (OVA)-induced airway hyperresponsiveness and allergic inflammation; assay: Mouse model of allergic inflammation (OVA), aerosol oligonucleotide administration; format: in vivo
Description: In the mouse model of allergic inflammation, mice were sensitized and challenged with aerosolized chicken ovalbumin (OVA). Airway responsiveness was assessed by inducing airflow obstruction with a methacholine aerosol using a noninvasive method. This methodology utilized unrestrained conscious mice that are placed into the main chamber of a plthysmograph (Buxco Electronics, Inc., Troy, N.Y.). Pressure differences between this chamber and a reference chamber were used to extrapolate minute volume, breathing frequency and enhanced pause (Penh). Penh is a dimensionless parameter that is a function of total pulmonary airflow in mice (i.e., the sum of the airflow in the upper and lower respiratory tracts) during the respiratory cycle of the animal. The lower the Penh, the greater the airflow. This parameter closely correlates with lung resistance as measured by traditional invasive techniques using ventilated animals (Hamelmann et al., 1997). Dose-response data were plotted as raw Penh values to increasing concentrations of methacholine. This system was used to test the efficacy of an antisense oligonucleotide targeted to mouse p38α (ISIS 101757; SEQ ID NO: 177). Mismatched p38α oligonucleotide (ISIS 101758; SEQ ID NO: 266) was used as a negative control.
[…]. […] AHR was measured 24 hours after OVA challenge.
Animals were injected with a lethal dose of ketamine, the trachea was exposed and a cannula was inserted and secured by sutures. The lungs were lavaged twice with 0.5 ml aliquots of ice cold PBS with 0.2% FCS. The recovered BAL fluid was centrifuged at 1,000 rpm for 10 min at 4° C., frozen on dry ice and stored at −80° C. until used. Luminex was used to measure cytokine levels in BAL fluid and serum.
Cytospins of cells recovered from BAL fluid were prepared using a Shandon Cytospin 3 (Shandon Scientific LTD, Cheshire, England). Cell differentials were performed from slides stained with Leukostat (Fisher Scientific, Pittsburgh, Pa.). Total cell counts were quantified by hemocytometer and, together with the percent type by differential, were used to calculate specific cell number.
Before resection, lungs were inflated with 0.5 ml of 10% phosphate-buffered formalin and fixed overnight at 4° C. The lung samples were washed free of formalin with 1×PBS and subsequently dehydrated through an ethanol series prior to equilibration in xylene and embedded in paraffin. Sections (6μ) were mounted on slides and stained with hematoxylin/eosin, massons trichome and periodic acid-schiff (PAS) reagent. Parasagittal sections were analyzed by bright-field microscopy. Mucus cell content was assessed as the airway epithelium staining with PAS. Relative comparisons of mucus content were made between cohorts of animals by counting the number of PAS-positive airways.

[2] = sensitized mice, aerosol, compared to the mismatched control

ISIS 101757: antisense oligonucleotide targeted to mouse p38α, SEQ ID NO 177; 2′-MOE gapmer, all phosphorothioate linkages (antisense AGGTGCTCAGGACTCCATTT; all phosphorothioate, sugars by position and methylation of C not given here; 2'-MOE gapmer)
p38α knock-down effect (p38α): confirmed
% Inhib. rat p38α (rat p38α mRNA): 53%
provocation concentration of methacholine required to achieve doubling of airway reactivity (PC200) ([1]; OVA-challenged mice, inhaled): increases
methacholine-induced AHR ([1]; OVA-sensitized mice, aerosol, whole body plethysmography): dose-dependently suppressed
OVA-induced increases in eosinophils recovered in BAL fluid ([1]; aerosol): significantly (P<0.05) reduced
OVA-induced increases in total cell counts recovered in BAL fluid ([1]; aerosol): significantly (P<0.05) reduced
OVA-induced inflammatory cell infiltration into the lungs (H&E stain) ([1]; aerosol, histology): markedly inhibited
mucus hypersecretion in the airway epithelium (PAS stain) ([1]; aerosol, histology): markedly inhibited
blood levels of OVA-specific IgE [1, 2]: significantly (P<0.05);lowered
blood levels of OVA-specific IgG1 [1, 2]: significantly (P<0.05);lowered
blood levels of total IgE [1, 2]: significantly (P<0.05);lowered
